The values that follow come from ChEMBL document CHEMBL4602687, “Dual Binding to Orthosteric and Allosteric Sites Enhances the Anticancer Activity of a TRAP1-Targeting Drug” (J Med Chem, 2020).

Calls of active or inactive are those of the source. The rule behind the calls is not given here.

In one assay the test system is LN-229. As to the kind of experiment: Cytotoxicity against human LN229 cells assessed as reduction in cell viability up to 3 uM measured after 24 hrs by MTT assay. Format: functional, cell-based.
The test system of the next assay is HeLa. The assay is described as follows: Cytotoxicity against human HeLa cells assessed as reduction in cell viability up to 3 uM measured after 24 hrs by MTT assay. Type of assay: functional, cell-based.
Assay [1] has as its system NCI-H460. The assay is described as follows: Cytotoxicity against human NCI-H460 cells assessed as reduction in cell viability up to 3 uM measured after 24 hrs by MTT assay. Type of assay: functional, cell-based. On the technique in general: Tetrazolium assays rely on reduction of a dye to a coloured formazan, in cell work by metabolically active cells.
The test system of the next assay is PC-3. The assay is described as follows: Cytotoxicity against human PC3 cells assessed as reduction in cell viability up to 3 uM measured after 24 hrs by MTT assay. Type of assay: functional, cell-based.
The target of assay [2] is T1, Heat shock protein 75 kDa, mitochondrial (Homo sapiens) (UniProt Q12931).
T1 sequence (whole entry): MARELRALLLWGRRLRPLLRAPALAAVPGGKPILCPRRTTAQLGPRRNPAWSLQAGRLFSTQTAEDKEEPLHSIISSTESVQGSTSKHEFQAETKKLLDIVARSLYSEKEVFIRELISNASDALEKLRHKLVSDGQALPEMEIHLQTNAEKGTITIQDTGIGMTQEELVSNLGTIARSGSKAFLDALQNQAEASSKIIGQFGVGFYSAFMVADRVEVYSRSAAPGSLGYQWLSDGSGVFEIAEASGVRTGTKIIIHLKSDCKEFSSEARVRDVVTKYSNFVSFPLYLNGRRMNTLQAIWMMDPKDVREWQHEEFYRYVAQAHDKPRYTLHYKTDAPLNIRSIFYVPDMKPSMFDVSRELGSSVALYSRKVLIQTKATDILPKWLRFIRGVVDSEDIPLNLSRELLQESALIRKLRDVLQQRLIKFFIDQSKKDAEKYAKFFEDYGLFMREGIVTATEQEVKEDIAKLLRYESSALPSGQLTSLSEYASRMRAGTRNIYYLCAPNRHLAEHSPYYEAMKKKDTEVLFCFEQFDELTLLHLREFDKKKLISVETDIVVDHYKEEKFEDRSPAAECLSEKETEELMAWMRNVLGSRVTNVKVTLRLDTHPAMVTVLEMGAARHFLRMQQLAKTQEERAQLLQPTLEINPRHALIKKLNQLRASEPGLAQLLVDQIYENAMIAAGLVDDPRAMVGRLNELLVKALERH
As to the kind of experiment: Inhibition of recombinant wild-type human TRAP1 ATPase activity expressed in Escherichia coli BL21 (DE3) preincubated for 0.5 hrs followed by ATP addition and measured after 3 hrs by PiColorLock Gold reagent based colorimetric assay.

Assay [3] concerns Mus musculus. The assay is described as follows: In vivo inhibition of TRAP1 in nude mouse xenografted with human NCI-H460 cells assessed as increase in AMPK phosphorylation at 5 mg/kg, ip administered daily by Western blot analysis. Format: functional, organism-based. A general note: In xenograft studies the graft and the host belong to different species.
For assay [4], the target named is T1, Heat shock protein 75 kDa, mitochondrial (Homo sapiens). The assay is described as follows: Inhibition of TRAP1 in human PC3 cells assessed as reduction in SIRT3 expression at 5 uM measured after 2 to 12 hrs by Western blot analysis. Format: cell-based. Conditions: PC-3. (Immunoblotting shows a protein as a band on a membrane.)
For assay [5] the target is unchanged. The assay is described as follows: Inhibition of TRAP1 in human PC3 cells assessed as reduction in SDHB expression at 5 uM measured after 2 to 12 hrs by Western blot analysis. Format: cell-based. Particulars: PC-3.
For assay [6] the target is unchanged. As to the kind of experiment: Inhibition of recombinant wild-type human TRAP1 chaperone activity expressed in Escherichia coli BL21 (DE3) at 5 uM preincubated for 30 mins followed by denatured luciferase and ATP addition by luciferase refolding assay.
Assay [7] shares this target. The assay is described as follows: Inhibition of TRAP1 in human PC3 cells assessed as loss of mitochondrial membrane potential at 10 uM measured after 2 hrs by TMRM dye based flow cytometry. Format: cell-based. Conditions: PC-3.
Assay [8] has the same target. The assay is described as follows: Binding affinity to recombinant wild-type human TRAP1 ATP site expressed in Escherichia coli BL21 (DE3) assessed as induction of conformational change by measuring closed state population of TRAP1 at 10 uM measured after 30 mins in absence of ATP by TEM analysis (reference value: 52.1 +/- 0.6 %).
Assay [9] is filed under the species Homo sapiens. The assay is described as follows: Inhibition of recombinant full-length human TRAP1 W585/W4F mutant expressed in Escherichia coli BL21 (DE3) assessed as intrinsic fluorescence quenching of tryptophan residues at 10 uM measured after 1 hr by fluorescence spectrophotometric method.
Assay [10] relates to Mus musculus. As to the kind of experiment: In vivo inhibition of TRAP1 in nude mouse xenografted with human NCI-H460 cells assessed as increase in SIRT3 degradation at 5 mg/kg, ip administered daily by Western blot analysis. Format: functional, organism-based.
Assay [11] has as its target T1, Heat shock protein 75 kDa, mitochondrial (Homo sapiens). The assay is described as follows: Inhibition of TRAP1 in human PC3 cells assessed as increase in CHOP expression at 5 uM measured after 2 to 12 hrs by Western blot analysis. Particulars: PC-3. Type of assay: cell-based.
Assay [12] deals with NCI-H460. The assay is described as follows: Antitumor activity against human NCI-H460 cells xenografted in nude mouse assessed as reduction in tumor cell proliferation at 5 mg/kg, ip administered daily by Ki67 staining based immunohistochemistry analysis. Format: functional, organism-based.
Assay [13] concerns Mus musculus. As to the kind of experiment: In vivo inhibition of TRAP1 in nude mouse xenografted with human NCI-H460 cells assessed as increase in CHOP expression at 5 mg/kg, ip administered daily by Western blot analysis. Format: functional, organism-based.
Assay [14] has as its target T1, Heat shock protein 75 kDa, mitochondrial (Homo sapiens). The assay is described as follows: Inhibition of TRAP1 in human PC3 cells assessed as increase in AMPK phosphorylation at 5 uM measured after 2 to 12 hrs by Western blot analysis. Format: cell-based. Particulars: PC-3.
For assay [15], the species on record is Homo sapiens. The assay is described as follows: Inhibition of recombinant full-length human TRAP1 W383/W4F mutant expressed in Escherichia coli BL21 (DE3) assessed as intrinsic fluorescence quenching of tryptophan residues at 10 uM measured after 1 hr by fluorescence spectrophotometric method.
Assay [16] deals with T1, Heat shock protein 75 kDa, mitochondrial (Homo sapiens). As to the kind of experiment: Inhibition of TRAP1 in human PC3 cells assessed as increase in reactive oxygen species generation at 10 uM measured after 2 hrs by Mito-SOX probe based flow cytometry. Format: cell-based. Particulars: PC-3.
Assay [17] relates to Mus musculus. As to the kind of experiment: In vivo inhibition of TRAP1 in nude mouse xenografted with human NCI-H460 cells assessed as increase in SDHB degradation at 5 mg/kg, ip administered daily by Western blot analysis. Type of assay: functional, organism-based.
The target in assay [18] is T1, Heat shock protein 75 kDa, mitochondrial (Homo sapiens). As to the kind of experiment: Binding affinity to recombinant wild-type human TRAP1 ATP site expressed in Escherichia coli BL21 (DE3) assessed as induction of conformational change by measuring closed state population of TRAP1 at 10 uM preincubated for 30 mins followed by ATP addition and measured after 30 mins by TEM analysis (reference value: 52.1 +/- 0.6 %).

Assay [19] concerns NCI-H460. The assay is described as follows: Antitumor activity against human NCI-H460 cells xenografted in nude mouse assessed as tumor growth inhibition at 5 mg/kg, ip administered daily. Type of assay: functional, organism-based.
Assay [20] relates to NCI-H460. As to the kind of experiment: Antitumor activity against human NCI-H460 cells xenografted in nude mouse assessed as induction of tumor cell death by measuring increase in cleaved caspase-3 expression at 5 mg/kg, ip administered daily by Western blot analysis. Format: functional, organism-based.
The subject of assay [21] is NCI-H460. As to the kind of experiment: Antitumor activity against human NCI-H460 cells xenografted in nude mouse assessed as induction of tumor cell death by measuring increase in cleaved caspase-9 expression at 5 mg/kg, ip administered daily by Western blot analysis. Format: functional, organism-based.

For the compound `CC(C)c1cc(-c2n[nH]c(=O)n2-c2ccc3c(ccn3C)c2)c(O)cc1O`, the outcome in the assay on LN-229, in the assay on HeLa, in the assay on NCI-H460 [1] and in the assay on PC-3 was Active.

In the case of `Nc1ncnc2c1nc(Sc1cc3c(cc1I)OCO3)n2CCCCCCCC[P+](c1ccccc1)(c1ccccc1)c1ccccc1`, the inhibition entry in [2] was “Active”.

As to `Nc1ncnc2c1nc(Sc1cc3c(cc1I)OCO3)n2CCCCCCCCCCCC[P+](c1ccccc1)(c1ccccc1)c1ccccc1`, in assay [2], the inhibition result is “Active”.

As for `Nc1ncnc2c1nc(Sc1cc3c(cc1I)OCO3)n2CCC[P+](c1ccccc1)(c1ccccc1)c1ccccc1`, in [2], the inhibition entry is “Active”.

Consider `Nc1ncnc2c1nc(Sc1cc3c(cc1I)OCO3)n2CCCCCC[P+](c1ccccc1)(c1ccccc1)c1ccccc1`, for which the inhibition result (with Mus musculus [3]; in [4]; in [5]; in the assay with Mus musculus [10]; in assay [11]; in the assay on Mus musculus [13]) was “inactive” in each case. Moreover, the inhibition result (in [14]; with Mus musculus [17]) was “inactive” each time. Besides, the inhibition result (in assay [6]; in [7]; in the assay listed under Homo sapiens [9]; in the assay listed under Homo sapiens [15]; in assay [16]; in assay [2]) was “Active” each time. Moreover, the results for the Activity in assay [8] and in assay [18] were 28.2% and 41.3%, respectively. Besides, the result in the assay on NCI-H460 [12], in the assay with NCI-H460 [20] and in the assay on NCI-H460 [21] was inactive. Further, the outcome in the assay on LN-229, with HeLa, in the assay with NCI-H460 [1] and in the assay with PC-3 was Active. Also, in the assay with NCI-H460 [19], the TGI entry is “inactive”.

Regarding `CC(C)NCCCn1c(Sc2cc3c(cc2I)OCO3)nc2c(N)ncnc21`, the inhibition result in assay [6] and in assay [2] was “Active” each time. Besides, the Activity in assay [8] stood at 28.3%; in assay [18] it was 26.5%. The result in the assay on LN-229, with HeLa, in the assay on NCI-H460 [1] and in the assay on PC-3 was Active.

For the compound `CO[C@H]1/C=C\C=C(/C)C(=O)NC2=CC(=O)C(NCCCCCC[P+](c3ccccc3)(c3ccccc3)c3ccccc3)=C(C[C@@H](C)C[C@H](OC)[C@H](O)[C@@H](C)/C=C(\C)[C@@H]1OC(N)=O)C2=O`, the result in the assay on LN-229, with NCI-H460 [1] and with PC-3 was Active.
